Measured values from US8536332B2, “Modulating signal transduction pathways with substituted pyridol [2,3-b] pyrazines” (Aeterna Zentaris GmbH, priority 2007, dated 2013).
pEC50, pIC50: −log10 of the molar value.

Assays:
Phospho-p90RSK (S380) = assay: Cellular substrate phosphorylation (Western blotting), Erk →pRsk; format: cell-based, human; conditions: for inhibition at 50 µM: Homo sapiens, 5 h; for inhibition of phospho-Rsk / Raf-Mek-Erk pathway, in words: Western blotting, concentrations of 5-50 μM
Procedure: (§1) This method enables a statement of whether the kinase modulator investigated achieves the desired effect in a cellular context too, i.e., in this case, a substrate protein downstream of the target kinase is examined for its phosphorylation status. To this end, the cells incubated with substance are lysed and the overall protein is separated on a reducing polyacrylamide gel. Subsequently, the proteins are transferred to a PVDF membrane by Western blotting and the substrate bands sought are made visible with specific antibodies and a suitable detection method. The substrate proteins down-stream of the target kinases are detected simultaneously with an anti-phospho antibody which is specific in each case and a total antibody which recognizes the substrate total protein. The duplex technology of the ODYSSEY imager (LiCOR) enables this simultaneous measurement. The intensity of the total substrate bands is employed to normalize and quantify the phosphorylation inhibition or activation.
(§2) Suitable tumor cell lines (e.g. BxPC3, Hct116 or MDA MB468) were seeded into 6-well microtitre plates in a defined cell count (e.g. 350 000 cells/well for BxPC3 and Hct116) in the particular standard complete media and then incubated overnight at 37° C., 5% CO2 and 95% air humidity. Afterwards, the cells were incubated for 24 h under serum-reduced conditions, i.e. in the particular medium except at only 0.25% serum. The test substances were made up as stock solutions (10 mM) in DMSO and incubated with the cells at final concentrations of 5, 15.8 and 50 μM for 5 h. This was followed by cell lysis in 25 mM Tris, 150 mM NaCl, 10 mM sodium pyrophosphate, 2 mM EGTA, 25 mM beta-glycerophosphate, 25 mM NaF, 10% glycerol, 0.75% NP-40, 100 μM NaVO4 buffer. After protein quantification using the BCA (bicinchonic acid protein assay kit, Sigma) assay, amounts of protein of about 20 μg per track were separated on a Lämmli polyacrylamide gel and then transferred onto a PVDF membrane (Millipore) by semi-dry Western blotting at 0.8 mA/cm^2 for 1 h. This was followed by prehybridization of the membrane for 1 hour in I-block reagent (Applied Biosystems) and overnight simultaneous incubation with the specific antibodies. […] After the membrane had been washed, the secondary antibodies were incubated with anti-rabbit IR Dye 800 (#611-732-127, Rockland) for the phospho antibodies and anti-goat Alexa Fluor 680 (#A-21081, […]) for the total protein antibodies. After incubation for 30 min at room temperature in the dark, the hybridization of the detection antibody was detected on the membrane by scanning in an ODYSSEY imager (LiCOR).

Jnk1 + Jnk2 = tested on: T1, Jnk1 + Jnk2; assay: Cell-free kinase assay (ALPHA technology) Jnk1 + Jnk2; format: biochemical, human; conditions: 10 μM ATP
T1 construct: fused on or other part: GST tag or His tag (commercial recombinant fusion proteins from Proqinase or Upstate)
Procedure: (§3) The inhibitory effect of the compounds of the invention was tested on various human serine/threonine kinases, tyrosine kinases and lipid kinases in enzymatic assays. Recombinant human kinases, for example PI3Kalpha, -beta, -gamma, -delta, Erk2, p38alpha, p38gamma, Jnk1, Jnk2 and others were used, in some cases as full-length kinases, in some cases as truncated fragments—but at least consisting of the functional kinase domains. The commercial kinase proteins (Proqinase, Upstate) were used as recombinant fusion proteins with GST (glutathione S-transferase) tag or His tag. Depending on the substrate type, the different kinase reactions were quantified by suitable ALPHA™ beads (PerkinElmer).
(§4) The kinase assays for PI3K and Erk are described in detail and selected test results are cited below. […] Subsequently, the kinase reaction was stopped by adding the ALPHA bead mix (10 μg/ml, #6760603/PerkinElmer), preincubated with 1 nM GST:Grp1 fusion protein (Upstate) and […] (#C-39B6/Echelon) in 50 mM Hepes, 50 mM NaCl, 50 mM EDTA and 0.1% BSA, and left to stand overnight. • b) Erk2-ALPHA: The test substance, 0.625 ng of Erk2 (#14-173, Upstate), 10 μM ATP and 15 nM biotinylated MBP (myelin basic protein) substrate were incubated on a 384-well Optiplate (Perkin Elmer) in a volume of 15 μl for 1 h in 25 mM Tris, 10 mM MgCl2, 0.1% Tween-20, 100 μM NaVO4, 2 mM DTT at pH 7.5. The kinase reaction was stopped by adding 10 μl of the ALPHA bead mix (10 μg/ml, #6760617/PerkinElmer), pre-incubated with anti-phospho MBP antibody (320 pM, #05-429/Upstate), in 25 mM Tris, 200 mM NaCl, 100 mM EDTA and 0.3% BSA, and left to stand overnight.
(§5) The luminiscence was detected the next morning in a Fusion™ alpha instrument (Perkin Elmer).
(§6) The calculation of % inhibition values per substance concentration was done by means of the following formula from the raw data determined in the Fusion™ alpha:
(§7) The controls were determined 8 fold and the substance samples 2 fold. 0% control contained neither any ATP nor any substrate. The 100% control contained no test substance. The IC50 values were determined with GraphPadPrism.

Erk2 = molecular target: T2, Erk2 (Mus musculus, UniProt P63085); assay: Cell-free kinase assay Erk2-ALPHA; format: biochemical, human; conditions: 10 μM ATP
T2 construct: purchased Upstate #14-173
T2 sequence (P63085 whole entry): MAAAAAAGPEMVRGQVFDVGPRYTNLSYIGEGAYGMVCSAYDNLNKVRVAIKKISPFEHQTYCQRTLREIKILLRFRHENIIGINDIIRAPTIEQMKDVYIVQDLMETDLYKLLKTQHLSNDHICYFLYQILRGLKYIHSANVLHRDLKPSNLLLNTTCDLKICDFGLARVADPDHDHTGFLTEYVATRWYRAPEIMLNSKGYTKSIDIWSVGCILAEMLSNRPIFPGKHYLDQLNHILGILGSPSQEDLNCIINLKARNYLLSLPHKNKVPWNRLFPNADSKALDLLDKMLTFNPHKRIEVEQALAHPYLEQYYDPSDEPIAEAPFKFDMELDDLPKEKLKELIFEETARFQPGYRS
Procedure: as §3, §4, §5, §6, §7

Hct116 = assay: XTT assay, anti-proliferative activity, Hct116; format: cell-based; conditions: Homo sapiens, HCT-116; 45 h incubation
Procedure: (§8) The principle of this test is based on the intracellular reduction of the tetrazolium dye XTT (sodium 3′-[1-(phenylaminocarbonyl)-3,4-tetrazolium]bis(4-methoxy-6-nitro)benzenesulphonic acid, Sigma) to a formazan dye by mitochondrial dehydrogenases. The dye is formed only by metabolically active cells. Its photometrically measurable intensity is a quantitative indicator for the presence of living cells. The reduction in the dye formation as a result of incubation of the cells with substances serves as a parameter for the anti-proliferative activity.
(§9) The tumour cell lines (ATCC) were seeded in 96-well microtitre plates in a defined cell count (5000 cells/well for Hct116; 10000 cells/well for MDA MB468), and incubated overnight at 37° C., 5% CO2 and 95% air humidity. The test substances were made up as stock solutions (10 mM) in DMSO. […] The cell plates were then incubated for 45 h at 37° C., 5% CO2 and 95% air humidity.
(§10) For the detection reaction, the XTT substrate was mixed with PMS (N-methyldibenzopyrazine methylsulphate, Sigma) and added to the cells, to result in a final concentration of 325 μg of XTT/ml and 2.5 μg PMS/ml. The mixture was then incubated for 3 h at 37° C., 95% air humidity. Subsequently the formazan salt formed by cellular dehydrogenases was quantified at an absorption of 490 nm.
(§11) The evaluation of the % inhibition values was done by means of the following formula from the values for the optical densities measured in each case at 490 nm:
(§12) The controls were determined 8 fold, the substance samples 2 fold. 0% control contained no cells and the 100% control contained no test substance. The EC50 values were determined with GraphPadPrism.

PI3Kalpha = molecular target: T3, PI3Kalpha (Homo sapiens, UniProt P42336); assay: Cell-free kinase assay PI3K-ALPHA; format: biochemical
T3 construct: purchased Upstate #14-602
T3 sequence (P42336 whole entry): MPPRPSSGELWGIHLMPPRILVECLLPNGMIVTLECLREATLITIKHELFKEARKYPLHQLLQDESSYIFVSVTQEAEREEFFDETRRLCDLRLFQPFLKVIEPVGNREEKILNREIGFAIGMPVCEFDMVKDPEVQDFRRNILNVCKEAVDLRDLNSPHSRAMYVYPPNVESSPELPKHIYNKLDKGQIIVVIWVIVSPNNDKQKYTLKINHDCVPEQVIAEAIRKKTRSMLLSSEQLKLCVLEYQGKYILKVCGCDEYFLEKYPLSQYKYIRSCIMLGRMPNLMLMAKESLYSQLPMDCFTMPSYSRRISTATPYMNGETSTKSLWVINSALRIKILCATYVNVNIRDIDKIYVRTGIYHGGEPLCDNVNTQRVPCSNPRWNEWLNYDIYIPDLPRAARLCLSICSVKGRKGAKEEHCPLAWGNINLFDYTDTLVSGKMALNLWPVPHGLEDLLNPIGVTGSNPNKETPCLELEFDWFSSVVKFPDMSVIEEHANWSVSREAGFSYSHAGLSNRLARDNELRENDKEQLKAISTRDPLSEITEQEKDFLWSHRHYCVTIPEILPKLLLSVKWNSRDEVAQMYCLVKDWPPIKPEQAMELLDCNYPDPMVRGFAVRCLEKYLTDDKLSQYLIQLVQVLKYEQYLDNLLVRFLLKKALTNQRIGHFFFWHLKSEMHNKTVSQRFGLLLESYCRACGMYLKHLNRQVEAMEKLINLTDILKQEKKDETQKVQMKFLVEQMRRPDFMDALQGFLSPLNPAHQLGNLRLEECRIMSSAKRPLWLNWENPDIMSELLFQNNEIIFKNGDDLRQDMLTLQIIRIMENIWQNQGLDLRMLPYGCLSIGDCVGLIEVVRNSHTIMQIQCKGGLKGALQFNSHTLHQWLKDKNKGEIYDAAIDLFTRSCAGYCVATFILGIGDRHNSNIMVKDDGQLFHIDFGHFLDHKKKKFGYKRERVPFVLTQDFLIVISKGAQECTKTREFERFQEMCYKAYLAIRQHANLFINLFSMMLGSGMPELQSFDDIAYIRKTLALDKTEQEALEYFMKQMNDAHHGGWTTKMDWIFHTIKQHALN
T3 sequence (P27986 whole entry partner): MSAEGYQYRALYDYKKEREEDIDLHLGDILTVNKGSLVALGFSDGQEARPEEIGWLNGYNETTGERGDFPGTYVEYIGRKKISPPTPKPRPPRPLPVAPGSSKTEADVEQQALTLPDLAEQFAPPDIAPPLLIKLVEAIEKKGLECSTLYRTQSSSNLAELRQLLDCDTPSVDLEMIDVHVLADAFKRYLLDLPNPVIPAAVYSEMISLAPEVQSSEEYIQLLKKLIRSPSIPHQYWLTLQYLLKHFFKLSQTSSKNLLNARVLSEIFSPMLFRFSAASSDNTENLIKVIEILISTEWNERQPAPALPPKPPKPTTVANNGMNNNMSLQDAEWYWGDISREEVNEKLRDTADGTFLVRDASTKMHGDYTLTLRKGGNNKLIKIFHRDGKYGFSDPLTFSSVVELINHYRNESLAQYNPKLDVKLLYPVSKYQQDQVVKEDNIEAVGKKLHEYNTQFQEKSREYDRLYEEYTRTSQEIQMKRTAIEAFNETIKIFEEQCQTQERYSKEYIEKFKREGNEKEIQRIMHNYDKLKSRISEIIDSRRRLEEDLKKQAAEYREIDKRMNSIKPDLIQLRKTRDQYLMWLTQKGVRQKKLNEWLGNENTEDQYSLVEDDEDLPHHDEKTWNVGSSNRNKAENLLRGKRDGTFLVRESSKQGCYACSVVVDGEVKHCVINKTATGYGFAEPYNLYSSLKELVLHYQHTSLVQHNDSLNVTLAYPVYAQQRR
Procedure: as §3, §4, §5, §6, §7

Phospho-Akt (Ser 473) = assay: Cellular substrate phosphorylation (Western blotting), PI3K →pAkt; format: cell-based, human; conditions: for inhibition at 50 µM: Homo sapiens, 5 h; for inhibition of cellular phospho-Akt / PI3K-Akt pathway, in words: Western blotting, concentrations of 5-50 μM
Procedure: as §1, §2

MDA-MB468 = assay: XTT assay, anti-proliferative activity, MDA-MB468; format: cell-based; conditions: Homo sapiens, MDA-MB-468; 45 h incubation
Procedure: as §8, §9, §10, §11, §12

p38alpha = p38alpha (Homo sapiens, UniProt Q16539); assay: Cell-free kinase assay (ALPHA technology) p38alpha; format: biochemical; conditions: 10 μM ATP
Sequence of p38alpha (Q16539 whole entry): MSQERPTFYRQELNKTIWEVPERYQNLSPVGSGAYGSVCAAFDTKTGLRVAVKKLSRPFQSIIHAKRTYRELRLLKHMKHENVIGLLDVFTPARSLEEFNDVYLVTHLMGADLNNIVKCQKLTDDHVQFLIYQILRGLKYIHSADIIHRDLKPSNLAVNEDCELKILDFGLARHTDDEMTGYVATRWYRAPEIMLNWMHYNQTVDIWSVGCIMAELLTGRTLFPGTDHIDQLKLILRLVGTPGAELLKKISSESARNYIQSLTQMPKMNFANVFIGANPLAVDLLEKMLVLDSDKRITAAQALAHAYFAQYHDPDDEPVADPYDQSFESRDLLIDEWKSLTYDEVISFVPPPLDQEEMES
Procedure: as §3, §4, §5, §6, §7

[1] = Cell-free kinase assay Erk2-ALPHA; format: biochemical, human; conditions: cell-free kinase assay; MAPK = Erk2, p38alpha, Jnk1+Jnk2 of Table 1
Procedure: as §3, §4, §5, §6, §7

Compound	inhibition at 50 µM (Phospho-p90RSK (S380))	inhibition of phospho-Rsk / Raf-Mek-Erk pathway, in words (Phospho-p90RSK (S380))	pIC50 (Jnk1 + Jnk2)	pIC50 (Erk2)	pEC50 (Hct116)	PI3K inhibition, in words (PI3Kalpha)	inhibition at 50 µM (Phospho-Akt (Ser 473))	inhibition of cellular phospho-Akt / PI3K-Akt pathway, in words (Phospho-Akt (Ser 473))	pEC50 (MDA-MB468)	pIC50 (p38alpha)	melting point	Erk2 / MAPK inhibition, in words [1]
CCNC(=O)Nc1cnc2ccc(-c3ccc(O)c(OC)c3)nc2n1 [Compound 5, 1-Ethyl-3-[6-(4-hydroxy-3-methoxy-phenyl)-pyrido[2,3-b]pyrazin-3-yl]-urea]	0%	phospho-Rsk is not inhibited	< 5.00	< 4.00	> 5.70	low IC50 values against PI3K	100%	total inhibition of cellular phospho-Akt at compound concentrations <50 μM	> 6.00	< 4.00		
CCNC(=O)Nc1ccc2ncc(-c3ccc(OC)c(O)c3)nc2n1 [Compound 46, 1-Ethyl-3-[3-(3-hydroxy-4-methoxy-phenyl)-pyrido[2,3-b]pyrazin-6-yl]-urea]	100%	inhibit both	> 6.00	> 6.30	> 5.00	inhibition of PI3K	40%	inhibit both	> 5.00	< 4.00	> 270 °C	inhibition of PI3K and Erk2
COc1cc(-c2ccc3ncc(NC(=O)Nc4cccs4)nc3n2)ccc1O [Compound 614, 1-[6-(4-Hydroxy-3-methoxy-phenyl)-pyrido[2,3-b]pyrazin-3-yl]-3-thiophen-2-yl-urea]			> 4.50	> 4.50	> 5.30				> 5.30	> 5.00	216 to 219 °C	
CCNC(=O)Nc1cnc2ccc(-c3ccc(O)c(Cl)c3)nc2n1 [Compound 637, 1-[6-(3-Chloro-4-hydroxy-phenyl)-pyrido[2,3-b]pyrazin-3-yl]-3-ethyl-urea]			< 4.00	< 4.00	> 5.00				> 5.00	< 4.00	> 270 °C	
CCNC(=O)Nc1cnc2ccc(-c3cc(C)c(O)c(C)c3)nc2n1 [Compound 181, 1-Ethyl-3-[6-(4-hydroxy-3,5-dimethyl-phenyl)-pyrido[2,3-b]pyrazin-3-yl]-urea]			< 4.00	< 4.00	> 5.00				> 5.00	> 4.30	> 240 °C	
CNC(=O)Nc1cnc2ccc(-c3ccc(OC)c(OC)c3)nc2n1 [Compound 566, 1-[6-(3,4-Dimethoxy-phenyl)-pyrido[2,3-b]pyrazin-3-yl]-3-methyl-urea]			< 4.00	< 4.00	> 5.30				> 5.30	< 4.50	253 to 255 °C	
CCNC(=S)Nc1ccc2ncc(Nc3cc(OC)c(OC)c(OC)c3)nc2n1 [Compound 160, 1-Ethyl-3-[3-(3,4,5-trimethoxy-phenylamino)-pyrido[2,3-b]pyrazin-6-yl]-thiourea]			< 4.00	> 4.50	> 6.00				> 6.00	> 4.30	268 °C	
COc1cc(-c2ccc3ncc(NC(=O)Nc4ccncc4)nc3n2)ccc1O [Compound 176, 1-[6-(4-Hydroxy-3-methoxy-phenyl)-pyrido[2,3-b]pyrazin-3-yl]-3-pyridin-4-yl-urea]			> 4.30	< 4.50	> 6.00				> 6.00	> 4.30	234 to 237 °C	
CCNC(=S)Nc1ccc2ncc(Nc3ccc(OC)c(O)c3)nc2n1 [Compound 147, 1-Ethyl-3-[3-(3-hydroxy-4-methoxy-phenylamino)-pyrido[2,3-b]pyrazin-6-yl]-thiourea]			< 4.50	< 4.00	> 5.30				> 5.30	< 4.00	272 °C	
COc1cc(Nc2cnc3ccc(NC(=S)NC4CCCC4)nc3n2)cc(OC)c1OC [Compound 509, 1-Cyclopentyl-3-[3-(3,4,5-trimethoxy-phenylamino)-pyrido[2,3-b]pyrazin-6-yl]-thiourea]			< 4.00	< 4.00	> 5.30				> 5.30	< 4.00	246 °C	
CCNC(=O)Nc1ccc2ncc(Nc3cccc(OC(F)F)c3)nc2n1 [Compound 73, 1-[3-(3-Difluoromethoxy-phenylamino)-pyrido[2,3-b]pyrazin-6-yl]-3-ethyl-urea]			< 4.00	< 4.00	> 5.30	PI3K inhibition			> 5.30	< 5.00		no or only moderate MAPK inhibition
